The assay has as its system rabbit corneas. Description: Rabbit corneal tensile measurements after in vivo treatment. The settings on record: for Percentage Change in Modulus After 3 Days Compared to Control / Percentage Change in Modulus Compared to Control: 0.2M BS^3 for 15 mins; for Percentage Change in Modulus After 3 Days Compared to Control: 3 days after treatment; for Percentage Change in Modulus Compared to Control: 28 days after treatment. The arrangement: species or system New Zealand rabbits. The method, then:
The tissue strip was mounted in the grips of a Univert tensile tester (CellScale, Ontario, Canada) with a 50 N load cell. Tissue was stretched at a rate of 125 μm/s until failure. Data was captured at 1 Hz. Stress-strain curves were plotted and the elastic modulus was determined at a range of strains: 5-10%, 10-15%, 20-25% and 30-35%. Data were trimmed to 3% from the strain at ultimate tensile strain and 6 term polynomial equations we determined from each curve. […] These polynomials represent the stress-stain response of each cornea and were used to create an average stress-strain curve for the samples.
Male Wistar rats (300 g) and mixed sex New Zealand rabbits (1.5-3 kg), both specific-antigen free, were ordered from Charles River UK and ENVIGO, respectively. They were allowed a minimum of 7 days acclimatisation prior to procedures. Animals were anaesthetised and proxymetacaine hydrochloride 0.5% w/v was applied to the corneas. For the rats, a 2 cm section of silicone tubing was placed on the cornea whereas for the rabbits the suction ring (as above) was placed on the cornea, and 200 μl of the sterile filtered 0.2 M BS^3 solution was instilled for 15 mins. Following this, eyes were rinsed with saline. Animals were provided with antibiotic/steroid drops (Tobradex, Novartis Pharmaceuticals UK Ltd, London, UK) daily and were monitored for any signs for distress or ocular discomfort.
Aqueous humour was collected. Rat ocular tissue was collected and fixed in 10% paraformaldehyde for histology. Rabbit the eyes enucleated and prepared for mechanical testing which was conducted the following day and the remaining cornea was fixed. Ocular tissue was also fixed in 10% paraformaldehyde.
Rabbit eyes were collected immediately after culling and were stored in a petri dish containing the PBS antibiotic/antimycotic solution, corneas facing up, at 4° C. overnight. Mechanical testing was conducted using the protocol above for ex vivo porcine tissue.
Statistical analyses were performed with Prism 9.3.1 (GraphPad Software, San Diego, CA, USA). In vivo data were compared by paired t-tests to contralateral control eyes.

Entries after “also recorded” stand apart in the source; their conditions may differ.

Turning to bis(sulfosuccinimidyl)suberate [BS3], the “Percentage Change in Modulus After 3 Days Compared to Control” value is reported as −6% (strain range 5-10%), 15% (strain range 10-15%), 43% (strain range 15-20%) and 104% (strain range 20-25%). Also, the “Percentage Change in Modulus Compared to Control” value by setting is: (strain range 5-10%) 22%; (strain range 10-15%) 29%; (strain range 15-20%) 28%; (strain range 20-25%) 38%. Also, the “effect on stiffness of corneal tissue vs untreated control eye” value by setting is: (3 days, lower strain ranges (5-10% & 10-15%)) “No significant difference; also recorded: insignificant effect”; (28 days, lowest and highest strain ranges) “No significant difference”.

The values are drawn from patent US20250295631A1, “NOVEL TREATMENT” (University of Liverpool, priority 2022, published 2025).
